Source: US20130253015A1, “Cyclodextrin-Based Microemulsions, and Dermatological Uses Thereof” (PRECISION DERMATOLOGY, INC., priority 2012, published 2013)

Key:
[1] = Solubility/dispersibility of retinol in Labrasol-HPGCD-water microemulsion systems; format: physicochemical
Source text: Drug used: 1. Solid Retinol (98%) from Sigma, 2.
Cyclodextrin used: hydroxypropyl-X-cyclodextrin (X=alpha, beta, or gamma).

[2] = cited from earlier work

## CC1=C(/C=C/C(C)=C/C=C/C(C)=C/CO)C(C)(C)CCC1 [solid retinol, Retinol]
[1]; cyclodextrin-based microemulsions of the invention
  amount of retinol that can be incorporated into cyclodextrin-based microemulsions: greater than 1.0 wt %
[1]; final retinol concentration 1.2%, clear transparent system (FIG. 4(b), 4(c))
  miscibility in Labrasol-HPGCD-water microemulsion system: complete miscibility
[2]
  miscibility in water: immiscible in water
